ChEMBL document CHEMBL5247623, “The SAR and action mechanisms of autophagy inhibitors that eliminate drug resistance” (Eur J Med Chem, 2022)
pEC50, pIC50: −log10 of the molar value. Values belong to the molecule of their own block, whether it stands above or below them.

What was measured:
[1] = system: BT-474; test: Inhibition of autophagy in human BT-474 cells; assay type: functional, cell-based
[2] = Inhibition of V-ATPase (unknown origin); design: species or system Homo sapiens
[3] = target: AMP-activated protein kinase, AMPK; test: Inhibition of rat AMPK; assay type: protein-complex assay
[4] = target: Phosphatidylinositol 4,5-bisphosphate 3-kinase catalytic subunit gamma isoform (Homo sapiens, UniProt P48736); test: Inhibition of P13Kgamma (unknown origin)
[5] = target: T1, Serine/threonine-protein kinase ULK1 (Homo sapiens, UniProt O75385); test: Inhibition of ULK1 (unknown origin)
T1 sequence (O75385 whole entry): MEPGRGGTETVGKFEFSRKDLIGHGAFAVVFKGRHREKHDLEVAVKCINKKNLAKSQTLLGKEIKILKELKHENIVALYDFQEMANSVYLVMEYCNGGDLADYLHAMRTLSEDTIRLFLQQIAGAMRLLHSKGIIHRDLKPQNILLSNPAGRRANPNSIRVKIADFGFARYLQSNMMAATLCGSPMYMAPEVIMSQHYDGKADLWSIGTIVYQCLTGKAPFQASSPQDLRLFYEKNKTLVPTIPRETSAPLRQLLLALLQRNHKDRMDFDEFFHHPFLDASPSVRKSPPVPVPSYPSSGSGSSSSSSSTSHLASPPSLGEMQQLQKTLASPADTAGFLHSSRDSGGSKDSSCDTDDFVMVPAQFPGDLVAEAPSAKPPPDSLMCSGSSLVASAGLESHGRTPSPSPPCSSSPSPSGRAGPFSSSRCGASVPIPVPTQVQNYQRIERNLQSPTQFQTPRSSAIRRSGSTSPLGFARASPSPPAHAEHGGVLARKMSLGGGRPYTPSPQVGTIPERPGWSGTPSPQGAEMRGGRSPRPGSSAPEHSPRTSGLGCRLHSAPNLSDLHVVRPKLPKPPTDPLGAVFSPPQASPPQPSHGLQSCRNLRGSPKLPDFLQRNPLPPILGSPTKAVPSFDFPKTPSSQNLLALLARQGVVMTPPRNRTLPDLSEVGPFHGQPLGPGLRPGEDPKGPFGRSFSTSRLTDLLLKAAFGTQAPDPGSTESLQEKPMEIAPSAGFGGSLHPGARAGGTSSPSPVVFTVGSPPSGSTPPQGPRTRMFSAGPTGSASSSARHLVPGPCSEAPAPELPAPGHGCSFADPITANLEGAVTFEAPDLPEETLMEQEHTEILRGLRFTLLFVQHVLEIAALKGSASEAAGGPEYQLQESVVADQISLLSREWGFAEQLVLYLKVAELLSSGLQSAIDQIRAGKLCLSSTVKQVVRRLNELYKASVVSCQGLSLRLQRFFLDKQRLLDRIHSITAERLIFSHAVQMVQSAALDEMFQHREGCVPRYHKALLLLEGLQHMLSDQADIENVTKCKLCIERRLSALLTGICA

[6] = target: T2, Serine/threonine-protein kinase ULK2 (Homo sapiens, UniProt Q8IYT8); test: Inhibition of ULK2 (unknown origin)
T2 sequence (Q8IYT8 whole entry): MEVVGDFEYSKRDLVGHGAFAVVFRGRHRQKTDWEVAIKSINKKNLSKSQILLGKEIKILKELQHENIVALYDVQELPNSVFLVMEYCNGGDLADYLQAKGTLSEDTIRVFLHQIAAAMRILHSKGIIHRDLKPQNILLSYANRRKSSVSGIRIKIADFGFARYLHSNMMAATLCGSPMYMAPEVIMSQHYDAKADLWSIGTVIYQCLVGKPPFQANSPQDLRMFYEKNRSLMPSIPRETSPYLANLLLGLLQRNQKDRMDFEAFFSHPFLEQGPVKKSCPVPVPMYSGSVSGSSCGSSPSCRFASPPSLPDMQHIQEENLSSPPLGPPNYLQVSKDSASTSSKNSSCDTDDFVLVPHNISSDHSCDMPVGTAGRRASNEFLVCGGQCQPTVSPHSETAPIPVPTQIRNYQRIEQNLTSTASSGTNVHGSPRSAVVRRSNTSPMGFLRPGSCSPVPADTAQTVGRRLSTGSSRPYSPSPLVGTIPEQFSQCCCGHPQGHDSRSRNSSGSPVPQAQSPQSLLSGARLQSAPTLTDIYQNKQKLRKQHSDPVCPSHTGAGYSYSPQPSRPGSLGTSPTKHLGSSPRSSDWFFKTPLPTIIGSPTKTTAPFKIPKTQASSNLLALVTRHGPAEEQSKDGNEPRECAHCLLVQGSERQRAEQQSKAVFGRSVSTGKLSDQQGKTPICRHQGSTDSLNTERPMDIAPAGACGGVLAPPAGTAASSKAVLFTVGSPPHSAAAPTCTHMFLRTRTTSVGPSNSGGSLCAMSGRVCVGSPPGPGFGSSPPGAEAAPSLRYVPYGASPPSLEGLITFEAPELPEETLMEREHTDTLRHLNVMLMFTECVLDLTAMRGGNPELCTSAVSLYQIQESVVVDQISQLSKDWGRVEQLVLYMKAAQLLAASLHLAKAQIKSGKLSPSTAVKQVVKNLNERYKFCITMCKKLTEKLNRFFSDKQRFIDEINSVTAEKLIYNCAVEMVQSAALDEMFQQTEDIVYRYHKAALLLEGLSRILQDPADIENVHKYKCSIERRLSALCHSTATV

[7] = Inhibition of bafilomycin induced autophagic flux in mouse embryonic fibroblast cells assessed as fold change in LC3-II levels at 1 uM incubated for 1 hr by immunoblot analysis relative to control; assay type: functional

Chain of Phosphatidylinositol 4,5-bisphosphate 3-kinase catalytic subunit gamma isoform (P48736 whole entry, canonical isoform): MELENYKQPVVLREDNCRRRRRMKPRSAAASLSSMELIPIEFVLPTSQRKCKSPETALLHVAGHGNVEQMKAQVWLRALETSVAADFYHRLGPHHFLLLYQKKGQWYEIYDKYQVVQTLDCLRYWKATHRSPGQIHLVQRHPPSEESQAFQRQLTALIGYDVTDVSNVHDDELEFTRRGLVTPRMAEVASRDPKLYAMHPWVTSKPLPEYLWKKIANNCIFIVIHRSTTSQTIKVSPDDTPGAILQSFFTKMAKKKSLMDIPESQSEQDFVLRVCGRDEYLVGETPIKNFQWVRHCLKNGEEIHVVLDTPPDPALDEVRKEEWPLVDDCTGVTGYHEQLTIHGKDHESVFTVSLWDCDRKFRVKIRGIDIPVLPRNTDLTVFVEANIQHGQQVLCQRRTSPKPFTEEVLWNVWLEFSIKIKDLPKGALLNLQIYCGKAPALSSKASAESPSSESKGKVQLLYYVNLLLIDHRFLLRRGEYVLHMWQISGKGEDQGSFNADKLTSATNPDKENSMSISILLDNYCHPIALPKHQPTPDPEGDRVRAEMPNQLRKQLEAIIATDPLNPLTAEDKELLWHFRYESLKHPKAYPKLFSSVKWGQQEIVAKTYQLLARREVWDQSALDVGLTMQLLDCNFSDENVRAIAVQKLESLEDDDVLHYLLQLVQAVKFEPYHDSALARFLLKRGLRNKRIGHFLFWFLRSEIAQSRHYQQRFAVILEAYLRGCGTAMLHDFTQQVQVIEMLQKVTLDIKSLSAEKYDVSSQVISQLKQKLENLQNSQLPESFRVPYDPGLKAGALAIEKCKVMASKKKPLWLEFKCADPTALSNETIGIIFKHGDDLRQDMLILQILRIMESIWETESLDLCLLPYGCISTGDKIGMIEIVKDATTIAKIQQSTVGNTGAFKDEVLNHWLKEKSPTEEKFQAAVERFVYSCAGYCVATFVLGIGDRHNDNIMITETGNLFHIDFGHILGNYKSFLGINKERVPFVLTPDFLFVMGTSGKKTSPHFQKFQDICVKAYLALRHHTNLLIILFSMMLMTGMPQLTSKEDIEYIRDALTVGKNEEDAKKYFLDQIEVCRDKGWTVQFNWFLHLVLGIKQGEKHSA

pEC50 [1]: 5.32
Compound: CCN(CC)CCCC(C)Nc1ccnc2cc(Cl)ccc12 (centres undefined) [CHLOROQUINE]

Compound: CO/C1=C\C(C)=C\[C@@H](C)[C@@H](O)[C@@H](C)C/C(C)=C/C=C/[C@H](OC)[C@@H]([C@@H](C)[C@@H](O)[C@H](C)[C@@]2(O)C[C@@H](O)[C@H](C)[C@@H](C(C)C)O2)OC1=O [BAFILOMYCIN A1]
pIC50 [2]: 9.36

pIC50 [3]: 7.21
Compound: CCN(CC)CCNC(=O)c1c(C)[nH]c(/C=C2\C(=O)Nc3ccc(F)cc32)c1C [SUNITINIB]

pEC50 ([1]; read-out: EC50): 5.02
Compound: CN1CCN(Cc2cc(CNC3(c4ccccc4F)CCCC3)ccc2O)CC1

Compound: Cn1cnc(N)c2ncnc1-2 [3-METHYLADENINE]
pIC50 [4]: 4.22

Compound: c1cc(-c2cnn3cc(-c4ccc(OCCN5CCCCC5)cc4)cnc23)ccn1 [DORSOMORPHIN]
pIC50 [3]: 5.89

Compound: O=C(NCCCNc1nc(Nc2cccc(CN3CCOCC3)c2)ncc1C1CC1)C1CC1
pIC50 [5]: 8.54 | pIC50 [6]: 8.96 | fold change (FC) [7]: 2
